In ChEMBL document CHEMBL5331051, “Cationic, amphipathic small molecules based on a triazine-piperazine-triazine scaffold as a new class of antimicrobial agents” (Eur J Med Chem, 2022):
Values after ≈ are worked out from the molar mass of the structure shown. Active and inactive are the calls of the source. The rule behind the calls is not given here. Positions of bridges follow the written chain, without caps; N, C: chain ends. Non-standard residues stand in square brackets, D forms with d. Residues, ends and D or L forms follow the SMILES beside them. *: point of attachment. Heptanoyl(6-Me) = CC(C)CCCCC(=O)*; dDab = NCC[C@@H](N)C(=O)O; Dab = NCC[C@H](N)C(=O)O

Assays:
[1] = system: Pseudomonas aeruginosa; assay: Antibacterial activity against Pseudomonas aeruginosa KCTC 1637 strain assessed as bacterial growth inhibition measured at 18 to 24 hrs by microdilution assay; assay type: functional; details: time 18-24 hrs
[2] = system: Staphylococcus aureus; assay: Antibacterial activity against Staphylococcus aureus KCTC 1621 strain assessed as bacterial growth inhibition measured at 18 to 24 hrs by microdilution assay; assay type: functional; details: time 18-24 hrs
[3] = system: Pseudomonas aeruginosa; assay: Antibiofilm activity against multidrug-resistant Pseudomonas aeruginosa assessed as inhibition of biofilm formation; assay type: functional
[4] = system: Escherichia coli; assay: Antibacterial activity against Escherichia coli KCTC 1682 strain assessed as bacterial growth inhibition measured at 18 to 24 hrs by microdilution assay; assay type: functional; details: time 18-24 hrs
[5] = system: Staphylococcus epidermidis; assay: Antibacterial activity against Staphylococcus epidermidis KCTC 1917 strain assessed as bacterial growth inhibition measured at 18 to 24 hrs by microdilution assay; assay type: functional; details: time 18-24 hrs
[6] = system: Erythrocyte; assay: Hemolytic activity in sheep RBC assessed as minimal hemolytic concentration causing 10% hemolysis incubated for 1 hr by ELISA; assay type: toxicity, cell-based, Ovis aries
[7] = system: Pseudomonas aeruginosa; assay: Antibiofilm activity against multidrug-resistant Pseudomonas aeruginosa assessed as biofilm eradication; assay type: functional
[8] = system: Lipopolysaccharide (LPS); assay: Binding affinity to Escherichia coli O111:B4 lipopolysaccharide assessed as suppression of FTIC labeled LPS binding to mouse RAW264.7 cells at 20 ug/ml pretreated LPS with cells for 1 hr followed by compound addition measured after 1 hr by flow cytometer assay (reference value: 48.12%); assay type: cell-based; details: dose 20.0 µg/ml
[9] = system: Lipopolysaccharide (LPS); assay: Binding affinity to Escherichia coli O111:B4 lipopolysaccharide assessed as suppression of FTIC labeled LPS binding to mouse RAW264.7 cells at 20 ug/ml pretreated with LPS followed by compound addition by flow cytometer assay (reference value: 67.4%); assay type: cell-based; details: dose 20.0 µg/ml
[10] = system: Pseudomonas aeruginosa; assay: Bactericidal activity against multidrug-resistant Pseudomonas aeruginosa CCARM 2095 measured after 24 hrs by time-kill kinetics assay; assay type: functional, organism-based
[11] = system: Pseudomonas aeruginosa; assay: Antibacterial activity against multidrug-resistant Pseudomonas aeruginosa CCARM 2109 strain assessed as bacterial growth inhibition measured at 18 to 24 hrs by microdilution assay; assay type: functional; details: time 18-24 hrs
[12] = system: Pseudomonas aeruginosa; assay: Bacteriostatic activity against multidrug-resistant Pseudomonas aeruginosa CCARM 2095 measured after 24 hrs by time-kill kinetics assay; assay type: functional, organism-based
[13] = system: Pseudomonas aeruginosa; assay: Additive antibacterial activity against multidrug-resistant Pseudomonas aeruginosa CCARM 2095 strain assessed as bacterial growth inhibition by checkerboard assay; assay type: functional
[14] = system: Enterococcus faecium; assay: Antibacterial activity against vancomycin-resistant Enterococcus faecium ATCC 51559 strain assessed as bacterial growth inhibition measured at 18 to 24 hrs by microdilution assay; assay type: functional; details: time 18-24 hrs
[15] = system: Pseudomonas aeruginosa; assay: Antibacterial activity against multidrug-resistant Pseudomonas aeruginosa CCARM 2095 strain assessed as bacterial growth inhibition measured at 18 to 24 hrs by microdilution assay; assay type: functional; details: time 18-24 hrs
[16] = system: Staphylococcus aureus; assay: Antibacterial activity against methicillin-resistant Staphylococcus aureus CCARM 3089 strain assessed as bacterial growth inhibition by checkerboard assay; assay type: functional
[17] = system: Staphylococcus aureus; assay: Antibacterial activity against methicillin-resistant Staphylococcus aureus CCARM 3095 strain assessed as bacterial growth inhibition measured at 18 to 24 hrs by microdilution assay; assay type: functional; details: time 18-24 hrs
[18] = system: Staphylococcus aureus; assay: Antibacterial activity against methicillin-resistant Staphylococcus aureus CCARM 3089 strain assessed as bacterial growth inhibition measured at 18 to 24 hrs by microdilution assay; assay type: functional; details: time 18-24 hrs
[19] = system: Pseudomonas aeruginosa; assay: Synergistic antibacterial activity against multidrug-resistant Pseudomonas aeruginosa CCARM 2095 strain assessed as bacterial growth inhibition by checkerboard assay; assay type: functional
[20] = system: Staphylococcus aureus; assay: Antibacterial activity against methicillin-resistant Staphylococcus aureus CCARM 3090 strain assessed as bacterial growth inhibition measured at 18 to 24 hrs by microdilution assay; assay type: functional; details: time 18-24 hrs

Row | Molecule | MIC [1] [µM] | MIC [2] [µM] | MIC [4] [µM] | MIC [5] [µM] | MHC [6] [µM] | also measured
1 | N=C(N)NCCCNc1nc(NCCCNC(=N)N)nc(N2CC(Cc3ccccc3)N(c3nc(NCCCNC(=N)N)nc(NCCCNC(=N)N)n3)CC2Cc2ccccc2)n1 (stereo not drawn) | 18.1 (≈ 15.9 µg/mL) | 4.5 (≈ 3.97 µg/mL) | 9.1 (≈ 8.02 µg/mL) | 9.1 (≈ 8.02 µg/mL) | > 290.3 | MBEC50 [3]: 18.1 µM; MBEC90 [3]: 145.2 µM; MBIC [3]: 36.3 µM; MBIC50 [3]: 4.5 µM; MBEC50 [7]: 18.1 µM; MBEC90 [7]: 145.2 µM
2 | NCCCCNc1nc(NCCCCN)nc(N2CCN(c3nc(NCCCCN)nc(NCCCCN)n3)C(Cc3ccccc3)C2)n1 (stereo not drawn) | 47 (≈ 31.9 µg/mL) | 23.5 (≈ 16 µg/mL) | 47 (≈ 31.9 µg/mL) | 23.5 (≈ 16 µg/mL) | > 376.3 | 
3 | NCCCNc1nc(NCCCN)nc(N2CCN(c3nc(NCCCN)nc(NCCCN)n3)C(Cc3ccccc3)C2)n1 (stereo not drawn) | 51.2 (≈ 31.9 µg/mL) | 25.6 (≈ 15.9 µg/mL) | 51.2 (≈ 31.9 µg/mL) | 25.6 (≈ 15.9 µg/mL) | > 409.6 | 
4 | CC(C)CCCCC(=O)N[C@@H](CCN)C(=O)N[C@H](C(=O)N[C@@H](CCN)C(=O)N[C@H]1CCNC(=O)[C@H]([C@@H](C)O)NC(=O)[C@H](CCN)NC(=O)[C@H](CCN)NC(=O)[C@H](CC(C)C)NC(=O)[C@@H](Cc2ccccc2)NC(=O)[C@@H](CCN)NC1=O)[C@@H](C)O ({Heptanoyl(6-Me)}-[Dab]T[Dab][Dab][dDab][dF]L[Dab][Dab]T; lactam 4-C) |  |  |  |  |  | Flu intensity [8]: 45.3%; Flu intensity [9]: 12.3%
5 | NCCN(CCN)c1nc(NCc2ccccc2)nc(N2CCN(c3nc(NCc4ccc5ccccc5c4)nc(N(CCN)CCN)n3)C(Cc3ccccc3)C2)n1 (stereo not drawn) | 20 (≈ 15.9 µg/mL) | 5 (≈ 3.99 µg/mL) | 40 (≈ 31.9 µg/mL) | 5 (≈ 3.99 µg/mL) | > 320 | 
6 | NCCCNc1nc(NCCCN)nc(N2CC(Cc3ccccc3)N(c3nc(NCCCN)nc(NCCCN)n3)CC2Cc2ccccc2)n1 (stereo not drawn) | 22.4 (≈ 16 µg/mL) | 11.2 (≈ 7.99 µg/mL) | 11.2 (≈ 7.99 µg/mL) | 11.2 (≈ 7.99 µg/mL) | > 358.4 | 
7 | N=C(N)NCCNc1nc(NCCNC(=N)N)nc(N2CCN(c3nc(NCCNC(=N)N)nc(NCCNC(=N)N)n3)C(Cc3ccccc3)C2)n1 (stereo not drawn) | 21.8 (≈ 16 µg/mL) | 21.8 (≈ 16 µg/mL) | 21.8 (≈ 16 µg/mL) | 21.8 (≈ 16 µg/mL) | > 348.2 | 
8 | NCCNc1nc(NCCN)nc(N2CCN(c3nc(NCCN)nc(NCCN)n3)C(Cc3ccccc3)C2)n1 (stereo not drawn) | 28.2 (≈ 16 µg/mL) | 56.4 (≈ 32 µg/mL) | 56.4 (≈ 32 µg/mL) | 56.4 (≈ 32 µg/mL) | > 451.1 | 
9 | N=C(N)NCCN(CCNC(=N)N)c1nc(NCc2ccccc2)nc(N2CCN(c3nc(NCc4ccc5ccccc5c4)nc(N(CCNC(=N)N)CCNC(=N)N)n3)C(Cc3ccccc3)C2)n1 (stereo not drawn) | 16.6 (≈ 16 µg/mL) | 4.1 (≈ 3.96 µg/mL) | 16.6 (≈ 16 µg/mL) | 4.1 (≈ 3.96 µg/mL) | 37.3 | 
10 | N=C(N)NCCCNc1nc(NCCCN)nc(N2CCN(c3nc(NCCCN)nc(NCCCN)n3)CC2Cc2ccccc2)n1 (stereo not drawn) | 24 (≈ 16 µg/mL) | 12 (≈ 7.98 µg/mL) | 24 (≈ 16 µg/mL) | 12 (≈ 7.98 µg/mL) | > 384 | 
11 | N=C(N)NCCCCNc1nc(NCCCCNC(=N)N)nc(N2CCN(c3nc(NCCCCNC(=N)N)nc(NCCCCNC(=N)N)n3)C(Cc3ccccc3)C2)n1 (stereo not drawn) | 9.4 (≈ 7.96 µg/mL) | 9.4 (≈ 7.96 µg/mL) | 18.9 (≈ 16 µg/mL) | 4.7 (≈ 3.98 µg/mL) | > 302.1 | 
12 | Cc1onc(-c2ccccc2)c1C(=O)N[C@@H]1C(=O)N2[C@@H]1SC(C)(C)[C@@H]2C(=O)O [OXACILLIN] |  |  |  |  |  | Activity [10]: inactive; MIC [11]: 5100 µM (≈ 2050 µg/mL); Activity [12]: inactive; MIC [13]: 1020 µg/mL; MIC [14]: 2180 µM (≈ 873 µg/mL); MIC [15]: 5100 µM (≈ 2050 µg/mL); MIC [16]: 1020 µg/mL; MIC [17]: > 5100 µM; MIC [18]: 2550 µM (≈ 1020 µg/mL); MIC [19]: 1020 µg/mL; MIC [20]: > 5100 µM
13 | O=C(O)c1cn(C2CC2)c2cc(N3CCNCC3)c(F)cc2c1=O [CIPROFLOXACIN] |  |  |  |  |  | Activity [10]: inactive; MIC [11]: > 6180 µM; Activity [12]: inactive; MIC [13]: 1020 µg/mL; MIC [14]: 1550 µM (≈ 512 µg/mL); MIC [15]: 3090 µM (≈ 1020 µg/mL); MIC [16]: 512 µg/mL; MIC [17]: > 6180 µM; MIC [18]: > 6180 µM; MIC [19]: 1020 µg/mL; MIC [20]: > 6180 µM
14 | N=C(N)NCCCNc1nc(NCCCNC(=N)N)nc(N2CCN(c3nc(NCCCNC(=N)N)nc(NCCCNC(=N)N)n3)C(Cc3ccccc3)C2)n1 (stereo not drawn) | 20.2 (≈ 16 µg/mL) | 20.2 (≈ 16 µg/mL) | 20.2 (≈ 16 µg/mL) | 20.2 (≈ 16 µg/mL) | > 322.6 | 
15 | N=C(N)NCCCN(CCCNC(=N)N)c1nc(NCc2ccccc2)nc(N2CC(Cc3ccccc3)N(c3nc(NCc4ccccc4)nc(N(CCCNC(=N)N)CCCNC(=N)N)n3)CC2Cc2ccccc2)n1 (stereo not drawn) | 8.2 (≈ 8.7 µg/mL) | 4.4 (≈ 4.67 µg/mL) | 16.5 (≈ 17.5 µg/mL) | 4.1 (≈ 4.35 µg/mL) | 226.4 | 
16 | N=C(N)NCCN(CCNC(=N)N)c1nc(NCc2ccccc2)nc(N2CC(Cc3ccccc3)N(c3nc(NCc4ccccc4)nc(N(CCNC(=N)N)CCNC(=N)N)n3)CC2Cc2ccccc2)n1 (stereo not drawn) | 8.7 (≈ 8.75 µg/mL) | 4.4 (≈ 4.42 µg/mL) | 8.7 (≈ 8.75 µg/mL) | 4.4 (≈ 4.42 µg/mL) | 124.5 | 
17 | NCCCN(CCCN)c1nc(NCc2ccccc2)nc(N2CC(Cc3ccccc3)N(c3nc(NCc4ccc5ccccc5c4)nc(N(CCCN)CCCN)n3)CC2Cc2ccccc2)n1 (stereo not drawn) | 18.7 (≈ 17.6 µg/mL) | 4.7 (≈ 4.43 µg/mL) | 9.4 (≈ 8.87 µg/mL) | 4.7 (≈ 4.43 µg/mL) | 189.5 | 
18 | N=C(N)NCCCCNc1nc(NCCCCN)nc(N2CCN(c3nc(NCCCCN)nc(NCCCCN)n3)CC2Cc2ccccc2)n1 (stereo not drawn) | 11.1 (≈ 8 µg/mL) | 11.1 (≈ 8 µg/mL) | 22.2 (≈ 16 µg/mL) | 5.6 (≈ 4.04 µg/mL) | > 355.8 | 
19 | COLISTIN |  |  |  |  |  | MIC [11]: 27.7 µM; MIC [14]: 13.8 µM; MIC [15]: 55.4 µM; MIC [16]: 512 µg/mL; MIC [17]: 13.8 µM; MIC [18]: 27.7 µM; MIC [20]: 27.7 µM
20 | N=C(N)NCCCN(CCCNC(=N)N)c1nc(NCc2ccccc2)nc(N2CC(Cc3ccccc3)N(c3nc(NCc4ccc5ccccc5c4)nc(N(CCCNC(=N)N)CCCNC(=N)N)n3)CC2Cc2ccccc2)n1 (stereo not drawn) | 7.8 (≈ 8.67 µg/mL) | 15.7 (≈ 17.4 µg/mL) | 31.4 (≈ 34.9 µg/mL) | 3.9 (≈ 4.33 µg/mL) | 56.8 | 
21 | N=C(N)NCCCCNc1nc(NCCCCNC(=N)N)nc(N2CC(Cc3ccccc3)N(c3nc(NCCCCNC(=N)N)nc(NCCCCNC(=N)N)n3)CC2Cc2ccccc2)n1 (stereo not drawn) | 8.5 (≈ 7.97 µg/mL) | 8.5 (≈ 7.97 µg/mL) | 8.5 (≈ 7.97 µg/mL) | 8.5 (≈ 7.97 µg/mL) | > 273.2 | MBEC50 [3]: 17.1 µM; MBEC90 [3]: 68.3 µM; MBIC [3]: 34.1 µM; MBIC50 [3]: 8.5 µM; MBEC50 [7]: 17.1 µM; MBEC90 [7]: 68.3 µM
